One may read the IC50 as the midpoint of a concentration-inhibition curve. Low readings indicate inhibition by little substance, high ones a need for much substance.

The text below walks through data of paper PMC4747042 (Molecular microbiology, 2009).

For this test, the target named is T1, MenA (Mycobacterium tuberculosis, UniProt P9WIP3).
T1 sequence (P9WIP3 1-292): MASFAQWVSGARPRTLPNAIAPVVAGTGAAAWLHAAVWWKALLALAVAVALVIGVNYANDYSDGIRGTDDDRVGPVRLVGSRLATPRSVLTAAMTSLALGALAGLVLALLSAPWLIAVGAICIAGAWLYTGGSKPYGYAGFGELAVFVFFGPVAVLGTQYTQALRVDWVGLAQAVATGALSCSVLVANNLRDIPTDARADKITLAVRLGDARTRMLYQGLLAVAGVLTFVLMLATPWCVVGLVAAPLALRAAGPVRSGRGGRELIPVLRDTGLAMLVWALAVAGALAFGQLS
Type of test: biochemical.

Turning to `C=CCN(C)CCCCCCOc1ccc(C(=O)c2ccc(Br)cc2)c(F)c1` [Ro 48-8071], the IC50 came to 9 µM.
